Data from article PMC4651778 (Journal of structural biology, 2015).

T1: DAX-1 140-154 (Homo sapiens, UniProt P51843)
T1 chain: PRQGSILYSLLTSSK


What was measured:
[1] = molecular target: Liver Receptor Homolog-1 (LRH-1, NR5A2) (Homo sapiens, UniProt O00482); experiment: crystal structure; assay type: binding
DAX-1 140-154 = molecular target: T1, DAX-1 140-154; experiment: SPR

Liver Receptor Homolog-1 (LRH-1, NR5A2), sequence (O00482 294-541): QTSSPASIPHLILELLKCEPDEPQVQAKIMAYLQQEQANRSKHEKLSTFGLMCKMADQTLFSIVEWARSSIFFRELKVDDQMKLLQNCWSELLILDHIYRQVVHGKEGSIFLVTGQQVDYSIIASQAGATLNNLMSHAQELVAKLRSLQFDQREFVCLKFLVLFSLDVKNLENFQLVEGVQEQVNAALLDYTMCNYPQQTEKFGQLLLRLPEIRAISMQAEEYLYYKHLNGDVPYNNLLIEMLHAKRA

| Kd [1] [nM] | Kd (DAX-1 140-154) [nM] | Molecule |
| --- | --- | --- |
| 120 ± 9 | – | CCCCCCCCCCCCCCCC(=O)OC[C@@H](COP(=O)(O)O[C@H]1[C@H](O)[C@@H](OP(=O)(O)O)[C@H](OP(=O)(O)O)[C@@H](OP(=O)(O)O)[C@H]1O)OC(=O)CCCCCCCCCCCCCCC [PIP3] |
| – | 90 | LRH-1 LBD (protein) SIPHLILELLKCEPDEPQVQAKIMAYLQQEQANRSKHEKLSTFGLMCKMADQTLFSIVEWARSSIFFRELKVDDQMKLLQNCWSELLILDHIYRQVVHGKEGSIFLVTGQQVDYSIIASQAGATLNNLMSHAQELVAKLRSLQFDQREFVCLKFLVLFSLDVKNLENFQLVEGVQEQVNAALLDYTMCNYPQQTEKFGQLLLRLPEIRAISMQAEEYLYYKHLNGDVPYNNLLIEMLHAK |
